# Laboratory results reported in patent US20140005119A1, “COMPOSITIONS AND METHODS FOR INHIBITING THE ACTIVITY OF P110a MUTANT PROTEINS” (Case Western Reserve University, priority 2012, published 2014).
# Legend:
# IRS1 phosphorylation = assay: Immunoblot of treated cells, IRS1 phosphorylation; assay type: cell-based, human
# Method: (§1) FIG. 4(A-F) illustrate: (A) Schematic diagram of linear and stapled WT and mutant peptides derived from p110α (SEQ ID NOs: 5, 6, 7 and 8). (B) Immunoblots of cell lysates immunoprecipitated with beads conjugated with anti-FLAG antibodies and then blotted with the indicated antibodies. Linear or stapled WT and mutant peptide were added into culture medium of the p110α E545K 3×FLAG KI cells for 16 hr. (C) Immunoblots of cell lysates immunoprecipitated with anti-p110α antibodies and then blotted with the indicated antibodies. Vaco481 CRC cells were treated with the stapled mutant peptides at the indicated concentration. (D) Immunoblots of cell lysates blotted with the indicated antibodies. The indicated cell lines were treated with the stapled mutant peptide. (E) Immunoblots of cell lysates blotted with the indicated antibodies. […]
# (§2) For Co-immunoprecipitation (Co-IP), cells were harvested, washed with PBS, and then lysed in IP buffer (50 mMTris [pH 7.4], 150 mMNaCl, 5 mMEDTA [pH 8.0], 0.5% NP40, 1 mM PMSF, complete Protease Inhibitor Cocktail tablet [Roche]; supplemented with phosphatase inhibitors [1 mM Na3VO4, 20 mM NaF, 0.1 mM b-glycerophosphate, 20 mM sodium pyrophosphate] when necessary). […] Lysates were then cleared by centrifugation (14,000 rpm, 10 min) and protein concentration in supernatants was determined with a BCA protein assay kit (Pierce, Rockford, Ill.). […]
# p110α = assay: Immunoblot of treated cell lines, p110α protein level; assay type: cell-based, human
# Method: as §1, §2
# [1] = target: T1, recombinant p110α E545K mutant protein (Homo sapiens, UniProt P42336, E545K); assay: In vitro lipid kinase assay; assay type: biochemical; settings: either alone or in the presence of IRS1
# T1 construct: 6×His; made in house; host or cells: Sf9 insect cells (baculovirus)
# Method: FIGS. 3(A-M) illustrate: (A, B) Mapping peptides (P3, SEQ ID NO: 1; P4 SEQ ID NO: 2; P5, SEQ ID NO: 3; P6, SEQ ID NO: 4) derived from mutant p110α that inhibit interaction between IRS1 and p110α E545K. The indicated peptides were added into cell lysates made from the p110α E545K 3×FLAG KI cells. Cell lysates were immunoprecipitated with beads conjugated with anti-FLAG antibodies and then blotted with anti-IRS1 antibodies. (C) Immunoblots of cell lysates made from the p110α E545K 3×FLAG KI cells. Cell lysates were immunoprecipitated with beads conjugated with anti-FLAG antibodies and then blotted with the indicated antibodies. (D) Immunoblots of cell lysate of Myc-tagged IRS1 plasmid, which co-transfected an ABD domain deletion construct of the FLAG-tagged p110α E545K mutant (ΔABD), incubated with the indicated amount of stapled p110α mutant peptides, and then immunoprecipitated with anti-FLAG antibodies and blotted with the indicated antibodies. (J, K) Immunoblot and graph of purified recombinant p110α E545K mutant proteins mixed with the indicated components and quantified using an in vitro lipid kinase assay. (L, M) Immunoblots of the indicated cell lines serum-starved, stimulated with 1 μg/ml insulin for 30 min, and then treated with or without the indicated peptides. Cell lysates were blotted with the indicated antibodies. All error bars show mean±SEM. *p<0.05, **p<0.001, t test. […]
# T1 sequence (P42336 whole entry E545K): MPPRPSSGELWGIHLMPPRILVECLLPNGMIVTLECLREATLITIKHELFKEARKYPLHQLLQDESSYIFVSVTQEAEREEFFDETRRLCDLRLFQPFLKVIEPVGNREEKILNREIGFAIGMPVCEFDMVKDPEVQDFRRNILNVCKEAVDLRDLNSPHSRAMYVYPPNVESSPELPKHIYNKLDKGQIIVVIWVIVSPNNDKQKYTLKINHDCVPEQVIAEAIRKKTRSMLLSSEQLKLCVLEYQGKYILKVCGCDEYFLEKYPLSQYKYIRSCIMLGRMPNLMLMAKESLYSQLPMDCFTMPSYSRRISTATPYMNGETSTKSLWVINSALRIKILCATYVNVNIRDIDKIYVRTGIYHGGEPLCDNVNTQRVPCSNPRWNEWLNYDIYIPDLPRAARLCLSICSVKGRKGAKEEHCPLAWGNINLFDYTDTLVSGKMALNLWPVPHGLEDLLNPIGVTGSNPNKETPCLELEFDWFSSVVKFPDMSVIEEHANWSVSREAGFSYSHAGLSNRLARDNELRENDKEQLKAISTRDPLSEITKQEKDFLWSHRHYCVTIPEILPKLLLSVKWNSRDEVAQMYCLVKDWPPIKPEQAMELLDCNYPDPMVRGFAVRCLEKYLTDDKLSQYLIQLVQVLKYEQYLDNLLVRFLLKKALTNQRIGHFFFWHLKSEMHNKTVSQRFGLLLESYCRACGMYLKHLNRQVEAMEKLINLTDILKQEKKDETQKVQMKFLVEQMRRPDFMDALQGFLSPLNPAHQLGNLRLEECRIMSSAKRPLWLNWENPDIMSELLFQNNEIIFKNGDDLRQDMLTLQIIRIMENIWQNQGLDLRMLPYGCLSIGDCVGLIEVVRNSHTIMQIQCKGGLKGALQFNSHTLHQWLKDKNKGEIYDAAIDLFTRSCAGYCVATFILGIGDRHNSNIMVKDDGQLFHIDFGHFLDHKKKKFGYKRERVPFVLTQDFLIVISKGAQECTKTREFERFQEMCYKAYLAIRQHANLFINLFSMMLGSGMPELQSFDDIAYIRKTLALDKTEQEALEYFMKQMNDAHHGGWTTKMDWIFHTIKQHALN
# T1 sequence (P27986 322-600 partner limits assumed): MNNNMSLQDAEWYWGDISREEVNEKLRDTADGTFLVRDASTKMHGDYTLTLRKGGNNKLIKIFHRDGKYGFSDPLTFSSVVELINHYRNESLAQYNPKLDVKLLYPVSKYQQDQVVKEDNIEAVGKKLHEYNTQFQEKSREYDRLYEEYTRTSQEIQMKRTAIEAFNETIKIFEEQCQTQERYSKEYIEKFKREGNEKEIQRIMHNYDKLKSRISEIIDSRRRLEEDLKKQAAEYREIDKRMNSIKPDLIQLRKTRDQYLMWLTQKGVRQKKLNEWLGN
substance,measurement,setting,value
H2N-SEITKQEK-D^549-FLW-S^553-HRHYC-COOH [stapled mutant peptide],IRS1 phosphorylation,IRS1 phosphorylation,did not interfere
same,protein levels of p110α,p110α,slightly reduce
same,kinase activity of recombinant p110α,[1],no effect
